# Assay results as given in patent US20130101986A1, “In Vitro Method for obtaining Intrahepatic Fibroblasts Infected with Hepatitis C Virus” (priority 2009, published 2013).
# Test system: HCV-JFH1
# Assay: Test of neutralization by interferon alfa of infection of human intrahepatic fibroblasts with HCV-JFH1
# Assay type: cell-based, hepatitis C virus
# Conditions: human intrahepatic fibroblasts preincubated 1 h at 37° C. with 500 U/ml of interferon alfa, infected at 0.1 FFU per cell; FIG. 8
# Experimental: The intrahepatic fibroblasts were infected one day after being put in culture with HCV-JFH1 to a multiplicity of infection of 0.1 FFU per cell. After incubation overnight at 37° C., the cellular monolayers were washed three times with phosphate-buffered saline and then grown in standard conditions (Aoudjehane et al., Lab. Invest., 88: 973-985, 2008) in DMEM medium (Gibco) 10% FCS in the presence of penicillin and streptomycin (1%) as well as pyruvate (1%).
# In order to determine whether the HCV genome is capable of replicating in intrahepatic fibroblasts inoculated with HCV-JFH1, the strands of positive RNA (genomic RNA) and the strands of negative RNA (antisense RNA) were quantified. For this purpose, the cells were taken on D3, D6 and D9 post-infection, washed in PBS buffer, then prepared using the “RNeasy minikit” extraction kit (QIAGEN S.A, Courtaboeuf, France) according to the supplier's recommendations, the cells having been lysed in 300 μl of buffer for 3.10^5 cells. The intracellular RNAs were quantified by quantitative RT-PCR specific to each strand as described by Carriere et al. (J. Med. Virol., 79: 155-160, 2007). […]
substance,measurement,value
interferon alfa,amount of negative-strand HCV RNA,decrease
same,amount of positive-strand HCV RNA,decrease
